Patent US5162336A, “Tetrahydro-pyrido-indoles as cholecystokinin and gastrin antagonists” (Rhone-Poulenc Rorer Pharmaceuticals Inc., priority 1990, dated 1992)

Columns and labels:
[1] = target: T1, CCK-A receptor (Rattus norvegicus, UniProt P30551); assay: CCK-A receptor binding assay (displacement of 3H-L-364,718 from rat pancreas membranes); set-up: species or system Sprague-Dawley rat; conditions: 3H-L-364,718 0.2 nM, 37° C., 30 min, read-out: In vitro Binding Data IC50 CCK
T1 construct: from tissue; host or cells: pancreas membranes of Sprague-Dawley rat
T1 sequence (P30551 1-444): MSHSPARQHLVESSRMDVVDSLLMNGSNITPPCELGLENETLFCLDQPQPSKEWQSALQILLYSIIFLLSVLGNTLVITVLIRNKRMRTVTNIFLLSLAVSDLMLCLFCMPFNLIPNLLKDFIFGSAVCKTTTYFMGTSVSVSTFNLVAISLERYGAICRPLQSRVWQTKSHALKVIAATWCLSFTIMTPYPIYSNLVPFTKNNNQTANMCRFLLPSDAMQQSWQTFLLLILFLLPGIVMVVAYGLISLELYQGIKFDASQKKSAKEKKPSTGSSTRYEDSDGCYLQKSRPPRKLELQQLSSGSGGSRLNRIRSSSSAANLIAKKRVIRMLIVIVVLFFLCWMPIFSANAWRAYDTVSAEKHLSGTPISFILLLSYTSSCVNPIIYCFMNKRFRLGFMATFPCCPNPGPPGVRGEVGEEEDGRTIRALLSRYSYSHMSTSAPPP
Description: Washer Buffer (for use with Brandel Cell Harvester):
30 liters of 50 mM Tris, ph 7.7: Dissolve 181.7 g. Tris base in 4 1. deionized water at room temperature. Adjust pH to 7.7 with 6 N HCl and Q.S. to 30 1.
50 mM Tris-Cl, 5 mM MgCl2, 5 mM dithio-thretiol, 0.14 mg/ml bacitracin, and 2 mg/ml bovine serum albumin.
1 liter of 5X stock buffer:
30.28 g. Tris base per 800 ml D.I. water 5.09 g. MgCl2 6 H2 O, pH to 7.7 at room temperature with 6N HCl and Q.S. 1 liter, store at 4° C.
250 ml working buffer kept on ice:
50 ml of 5X stock buffer 0.1928 g. dithiothretiol (5 mM), 35 mg bacitracin (0.14 mg/ml), and 0.5 g. BSA (2mg/ml).
Unlabeled L-364,718(nonpeptide ligand):
Unlabeled L-364,718 (300 nM final concentration) is used to define nonspecific binding. A 3 mM solution is made in absolute ethanol and stored in a scintillation vial at -70° C. Aliquots are diluted 100-fold in the assay.
A Sprague-Dawley rat is sacrificed by asphyxiation with carbon dioxide and the pancreas removed. The tissue is immersed in cold wash buffer and carefully trimmed of fat, connective tissue, blood vessels, blotted and weighed. The tissue is homogenized in a Sorvall SS-34 centrifuge tube in 50 volumes of wash buffer using a Polytron at setting 7 for 15 seconds. The tissue is centrifuged (Sorvall SS-34) at 19,000 rpm for 10 min. The supernatant is poured off and the pellet resuspended in sufficient buffer to obtain a contraction of 40 mg tissue wet weight/ml. Separate aliquots (2,3ml) are placed in each of 8 centrifuge tubes and centrifuged as before. The supernatants are poured off and the pellets stored at -70° C. Stored pellets are sufficient for the assay of 160 tubes and are stable for 1-2 months.
During the assay the stored membranes are resuspended in 40 ml of assay buffer by scraping the pellet off the wall of the centrifuge tube and washing it into a teflon-glass homogenizer. Membranes are resuspended by 5 passes with the teflon pestle and the membranes stored on ice until ready for use.
Preparation of Compounds:
Compounds are prepared in DMSO (dimethyl sulfoxide) or in assay buffer. The majority of structures active as CCK antagonists generally require DMSO for complete solubility. Approximately 2-3 mg of compound is weighed directly into a 13×100 mm test tube and sufficient DMSO added to obtain a working stock solution at a concentration 100 fold greater than the highest concentration being tested in the assay. A total of 10 μl of each concentration of drug is added into a final volume of 1 ml to yield a 100 fold dilution of the, working stock solution. Control binding tubes ("totals and nonspecifics") are also treated with 10 μl DMSO.
^3 H-L-364,718 is obtained from New England Nuclear (Cat. #971) and is used as supplied. The final assay concentration of ^3 H-L-364,718 in assay buffer should be 0.2 nM in a final assay volume of 1 ml. ^3 H-L-364,718 (0.2 pmol) is added into the assay in a volume of 25 μl (8 nM working stock solution). The required dilution (usually>1000 fold) is obtained by dividing the working stock concentration into the concentration of the specific lot.
Samples are prepared in triplicate and a "total" (buffer addition) and "nonspecific" (300 nM unlabeled L-364,718) set of tubes included in each set of 24 tubes. The remaining 6 sets of triplicates are used either for screening or IC50 determinations. The order of addition is drugs-DMSO, buffer, unlabeled L-364,718, ^3 H-L-364,718, and to start the assay, membranes.
While tubes are incubating a shaking water bath at 37° C. for 30 min Brandel deposit/dispense filters are presoaked in wash buffer. Following the end of the incubation, sets of 24 tubes are rapidly washed with assay buffer as follows. Assay buffer is added to the incubation tubes to the height of the uppermost cross support in the standard Brandel test tube rack and the contents immediately aspirated. This process is repeated twice more, the filter removed, marked and the next set of 24 tubes processed. […]

[2] = target: T2, Gastrin receptor (Cavia porcellus, UniProt H0VZC5); assay: Gastrin receptor binding assay (displacement of 125I-(Leu-15)-Gastrin from guinea pig fundic glands); set-up: species or system guinea pig (Hartley Strain); conditions: guinea pig fundic mucosa glands, 25° C., 30 min, read-out: In vitro Binding Data IC50 Gastrin
T2 construct: The fundic mucosa is gently scraped off the submucosa; from tissue; host or cells: gastric glands from fundic mucosa of Hartley guinea pig
T2 sequence (H0VZC5 1-426): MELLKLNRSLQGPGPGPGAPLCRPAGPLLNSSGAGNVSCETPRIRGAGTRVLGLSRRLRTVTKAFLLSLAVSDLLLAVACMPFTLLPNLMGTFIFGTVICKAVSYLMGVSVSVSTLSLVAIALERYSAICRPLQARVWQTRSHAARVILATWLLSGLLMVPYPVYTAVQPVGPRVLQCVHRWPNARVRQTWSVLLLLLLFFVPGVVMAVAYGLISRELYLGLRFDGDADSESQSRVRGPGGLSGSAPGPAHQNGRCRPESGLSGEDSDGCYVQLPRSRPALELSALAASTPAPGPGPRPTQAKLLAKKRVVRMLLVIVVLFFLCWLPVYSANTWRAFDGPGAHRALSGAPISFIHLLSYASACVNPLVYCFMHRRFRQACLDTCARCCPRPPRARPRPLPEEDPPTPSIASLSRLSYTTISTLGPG
Description: (a) Phosphate Buffered Saline (PBS): 8.743 g NaCl, 523 mg K2 HPO4 and 76.8 mg NaH2 PO4 is dissolved in 1.0 liter of deionized water and the pH of the solution is adjusted to 7.3 with 5N NaOH.
(b) Buffer A: While adding Basal Medium Eagle (BME) containing Earle's Salts, L-glutamine and 25 mM HEPES, 3 liters of deionized water is stirred, followed by the addition and dissolution of […] of sodium bicarbonate. The solution is then equilibrated with 95% O2 /5% CO2 gas followed by titration to a pH of 7.4 with NaOH.
(c) Buffer B: 18.75 mg of collagenase and […] of BSA is dissolved in 25 ml of Buffer A.
(d) Buffer C: 0.3 g of BSA is dissolved in 300 ml of Buffer A.
(e) 6.25 mg Bacitracin is dissolved in 25 ml of Buffer A.
(f) ^125 I-(Leu-15)-Gastrin: 100 microcurie dissolved in 2.0 ml of Buffer A to make 50 microcurie/ml.
(g) ^125 I-(15-methionine)-Human Gastrin: 50 microcurie/ml.
(h) (Leu 15)-Gastrin: 5.2 mg of (Leu-15)- Gastrin is dissolved in 10 ml of Buffer A. At the time of assay 1:10 dilution is made and 10 μl assay tube is used.
A guinea pig (Hartley Strain) weighing 150-200 grams, is sacrificed by CO2 asphyxiation and the stomach immediately excised, cut along the greater curvature, cleaned out and immediately immersed in a beaker containing cold PBS, pH 7.3, to insure thorough cleaning. The fundic mucosa is gently scraped off the submucosa and added to a preweighed 50 ml plastic centrifuge tube containing 30 ml of cold Buffer A. The weight of the plastic centrifuge tube containing the buffer is then subtracted from the combined weight of the mucosa and the buffer-containing tube to give the weight of the mucosa. The weight of the mucosa thus determined is recorded for later calculations.
The mucosa is then washed twice in Buffer A. After the final wash, the tissue is minced and is placed in a 100-ml glass beaker containing about 1.0 ml of Buffer A, and washed twice again by repeated centrifugation at 50×g for 5 minutes each and aspiration of supernatant. The washed tissue fragments are then added to a glass Erlenmeyer flask containing 25 ml of Buffer B and incubated in a Dubnoff shaking water bath at 37° C. for 30 minutes in a 95% O2 - 5% CO2 atmosphere. After the incubation, the digested tissue fragments in the Collegenase-buffer solution are triturated, filtered through a 200-micron nylon mesh and centrifuged at 50×g for 5 minutes. The supernatant is aspirated and discarded, the tissue washed 2× in Buffer C, resuspended in same buffer, incubated in a 37° C. water bath in an atmosphere of 95% O2 - 5% CO2 for 5 minutes, and centrifuged. The pelleted glands are suspended in Buffer D at a desired concentration of 2x10^5 glands/ml to use in the receptor binding assay.
Six minisorp tubes (16×100 mm) are serially marked and divided into two groups thus: tubes #1, #2, and #3 are marked "T" for "Totals" and tubes #4, #5, and #6 are marked "NS" for "Non-Specifics." Into each of the six tubes are added 220 μl of prepared glands in Buffer D; 20 μl of Buffer A in tubes #1, #2, and #3; 10 μl, in tubes #4, #5 and #6; (10μ of (Leu-15)-Gastrin (25 μM) in tubes #4, #5, and #6. The six tubes are then transferred immediately to a 25° C. water bath and challenged each with 10 μl ^125 I-(Leu-15)-Gastrin diluted as per calculation. The tubes are then covered with a gas hood connected to a 95% O2 - 5% CO2 gas source and mechanically agitated in a shaker for 30 minutes.
At the end of the incubation period, the assay mixtures are each filtered through a Whatman glass fiber filter B on a Brandel tissue harvester and washed twice with Buffer A. The filters are pre-soaked in Buffer C before use. The filter strips are removed after the final wash and individual filters counted in a Gamma Counter. The counts from the "Non-Specific" tubes are then averaged and subtracted from the average "Totals" to give the Specific Counts. […]

[3] = system: peripherial gastrin and CCK-B (brain) receptors; conditions: cited from earlier work
[4] = system: CCK-A (peripheral CCK) receptor; conditions: second generation proglumide analogues; cited from earlier work
[5] = system: gastrin receptor; conditions: cited from earlier work
[6] = system: gastrin receptor; conditions: cited from earlier work; remark: listed apart in the source
[7] = system: gastrin; conditions: rat (in vivo); cited from earlier work

NC(=O)[C@H](CC(=O)OCc1ccccc1)NC(=O)[C@H]1Cc2c([nH]c3ccccc23)CN1C(=O)c1ccccc1 [Example 7, N-[(3R)-2-benzoyl-1,2,3,4-tetrahydro-9H-pyrido[3,4-b]indole-3-carboxyl]-L-aspartic acid amide β-benzyl ester]
IC50 [1]: 25 µM

COc1ccc(NC(=O)N2Cc3[nH]c4ccccc4c3C[C@@H]2C(=O)Nc2ccccc2C(=O)N2CCCC2)cc1 [Example 21, pyrrolidine-2-N-[(3R)-2-(4-methoxyphenylcarbamoyl)-1,2,3,4-tetrahydro-9H-pyrido[3,4-b]indole-3-carboxyl]aminobenzamide]
IC50 [2]: 90 µM

NC(=O)[C@H](CC(=O)O)NC(=O)[C@@H]1CCCN1C(=O)[C@H]1Cc2c([nH]c3ccccc23)CN1C(=O)Nc1ccc(Cl)c(Cl)c1 [Example 25]
IC50 [2]: 0.23 µM

CC(C)C[C@@H](NC(=O)[C@@H]1Cc2c([nH]c3ccccc23)CN1C(=O)Nc1ccc(Cl)c(Cl)c1)C(=O)N[C@H](CC(=O)O)C(N)=O [Example 71]
IC50 [2]: 4 µM

Cc1cccc(NC(=O)N[C@@H]2N=C(c3ccccc3)c3ccccc3N(C)C2=O)c1 [L-365,260]
selectivity for peripheral gastrin and CCK-B (brain) receptors [3]: selective for the peripherial gastrin and CCK-B (brain) receptors

CCCCCN(CCCCC)C(=O)C(CCC(=O)O)NC(=O)c1ccc(Cl)c(Cl)c1 (centres unmarked) [Lorglumide]
receptor affinity and selectivity [4]: considerably better receptor affinity and selectivity

CCCCCN(CCCOC)C(=O)C(CCC(=O)O)NC(=O)c1ccc(Cl)c(Cl)c1 (centres unmarked) [Loxiglumide]
receptor affinity and selectivity [4]: considerably better receptor affinity and selectivity

Boc-Trp-Leu-.PSI.(CH2 NH)-Asp-Phe-NH2
agonist activity [5]: no agonist activity | binding affinity ([6]; compared with Boc-Trp-Leu-Asp-Phe-NH2): same binding affinity as Boc-Trp-Leu-Asp-Phe-NH2

Boc-Trp-Leu-gAsp-m(R,S)Phe-NH2
block the effects of gastrin [7]: block the effects of gastrin | binding to the gastrin receptor ([6]; analogues of CCK-4 with partial retroinverso modifications): bind strongly
